Test results reported in patent US6852317B2 (priority 2000, dated 2005).

System: Alternaria

**Q.** `Nc1nc2cccc(-c3ccc(CN4CCS(=O)(=O)CC4)cc3)n2n1` [metabolite] was tested. Which activity after heating (heating to 80 degrees C. for one hour) did it give?
**A.** Its activity after heating is “not lost”.

**Q.** What about the “activity after treatment with acid” value (treated with acid) of the same molecule?
**A.** Its value is “lost”.

**Q.** And the “score against Alternaria after acid treatment” value (treated with acid, score before treatment 0, 0-5 scale)?
**A.** The value was 5.

**Q.** And the “activity after treatment with base” value (treated with base)?
**A.** Its value is “not lost”.
